These results are taken from ChEMBL document CHEMBL1629541, “Synthesis and structure-activity relationships of aza- and diazabiphenyl analogues of the antitubercular drug (6S)-2-nitro-6-{[4-(trifluoromethoxy)benzyl]oxy}-6,7-dihydro-5H-imidazo[2,1-b][1,3]oxazine (PA-824)” (J Med Chem, 2010).

Each structure is given as a SMILES string. Converted amounts (≈) assume the structure as drawn.

Data set [1] is described as follows: AUC (0-infinity) in CD1 mouse plasma at 40 mg/kg, po administered as single dose. Format: ADME, organism-based. Further details: time infinity, dose 40 mg/kg, route oral.
The nature of data set [2]: Cmax in CD1 mouse plasma at 40 mg/kg, po administered as single dose. Format: ADME, organism-based. Also noted: dose 40 mg/kg, route oral.
Data set [3] in a line: Half life in CD1 mouse plasma at 40 mg/kg, po administered as single dose. The format is ADME, organism-based. Further details: dose 40 mg/kg, route oral.
The nature of data set [4]: AUC (0-infinity) in CD1 mouse lung at 40 mg/kg, po administered as single dose. Further details: time infinity, dose 40 mg/kg, route oral. Format: ADME, organism-based.
A short description of data set [5]: Cmax in CD1 mouse lung at 40 mg/kg, po administered as single dose. Format: ADME, organism-based. Also noted: dose 40 mg/kg, route oral.
Data set [6] can be described thus: Half life in CD1 mouse lung at 40 mg/kg, po administered as single dose. The format is ADME, organism-based. Further details: dose 40 mg/kg, route oral.
Data set [7] can be described thus: Ratio of AUC (0-infinity) in lung to AUC (0-infinity) in plasma of CD1 mouse at 40 mg/kg, po administered as single dose. Format: ADME, organism-based. Further details: dose 40 mg/kg, route oral.
Data set [8] is described as follows: Cmax in Sprague-Dawley rat at 1 mg/kg, iv administered as single dose. Further details: dose 1 mg/kg, route intravenous. The format is ADME, organism-based. The conditions noted are these: in vivo.
Data set [9] can be described thus: Tmax in Sprague-Dawley rat at 1 mg/kg, iv administered as single dose. The format is ADME, organism-based. Further details: dose 1 mg/kg, route intravenous. The conditions noted are these: in vivo.
Data set [10] in a line: Half life in Sprague-Dawley rat at 1 mg/kg, iv administered as single dose. Format: ADME, organism-based. Also noted: dose 1 mg/kg, route intravenous. The conditions noted are these: in vivo.
Data set [11] is described as follows: AUClast in Sprague-Dawley rat at 1 mg/kg, iv administered as single dose. The format is ADME, organism-based. The conditions noted are these: plasma. Further details: time 0 - last, dose 1 mg/kg, route intravenous.
Data set [12] in a line: Cmax in Sprague-Dawley rat at 20 mg/kg, po administered as single dose. The note with it: in vivo. Also noted: dose 20 mg/kg, route oral. The format is ADME, organism-based.
The nature of data set [13]: Tmax in Sprague-Dawley rat at 20 mg/kg, po administered as single dose. Format: ADME, organism-based. Further details: dose 20 mg/kg, route oral. The conditions noted are these: in vivo.
The nature of data set [14]: AUClast in Sprague-Dawley rat at 20 mg/kg, po administered as single dose. The format is ADME, organism-based. Also noted: time 0 - last, dose 20 mg/kg, route oral. The note with it: plasma.
Data set [15] in a line: Oral bioavailability in Sprague-Dawley rat at 20 mg/kg, po administered as single dose. Format: ADME, organism-based. The note with it: in vivo.
The nature of data set [16]: Thermodynamic solubility in aqueous buffer at pH 1 at 20 degC by HPLC. The format is physicochemical. The conditions noted are these: aqueous buffer.
Data set [17] in a line: Thermodynamic solubility in aqueous buffer at pH 7.4 at 20 degC by HPLC. Format: physicochemical.
A short description of data set [18]: physchem. The note with it: water, pH 7.
Description: Solubility of the compound in water at pH 7.0 by HPLC
Data set [19] can be described thus: physchem. The note with it: water, pH 1.
Description: Solubility of the compound in water at pH 1.0 by HPLC
Data set [20] in a line: in vitro. The conditions noted are these: human, liver microsomes. (Liver microsomes are vesicles of endoplasmic reticulum, rich in cytochrome P450 enzymes.)
Description: Metabolic stability in human liver microsomes assessed as compound remaining after 1 hr
Data set [21] is described as follows: in vitro. The note with it: CD1, mouse, liver microsomes.
Description: Metabolic stability in CD1 mouse liver microsomes assessed as compound remaining after 1 hr
For data set [22], the system named is Mycobacterium tuberculosis. Description: microbe, parasite or virus in culture. The conditions noted are these: H37Rv.
Data set [23] deals with Mycobacterium tuberculosis. As to the kind of experiment: microbe, parasite or virus in culture. The conditions noted are these: H37Rv. The source holds these as a separate data set.
Description: Antitubercular activity against Mycobacterium tuberculosis H37Rv by LORA method
Data set [24] can be described thus: Metabolic stability in human liver microsomes after 1 hr at 37 degC. Format: ADME, Microsome. The conditions noted are these: read-out: Stability.

Broadly, the AUC(0-inf) is the area under the concentration-time curve extrapolated to infinity. As usually defined, the Cmax is the highest concentration seen after dosing. As usually defined, the half-life is the time in which the quantity being followed falls by half. Low readings indicate fast loss, high ones slow loss. The Kp is the ratio of the level in a tissue or fluid to that in plasma or blood. A word on the Tmax: it is the time from dosing to the highest level. A word on the AUC(0-t): it is the area under the concentration-time curve up to a stated or last time point. A lower AUC(0-t) goes with less exposure. One may read the bioavailability as dose-corrected exposure relative to a reference, in per cent. A high value points to good availability. What is called thermodynamic solubility is solubility found after equilibrating the solid with the medium. Broadly, the solubility is how much of the substance goes into solution per volume. Low readings indicate little dissolved substance, high ones much dissolved substance. Take `O=[N+]([O-])c1cn2c(n1)OC[C@@H](OCc1ccc(-c3ccc(OC(F)(F)F)c(F)c3)nc1)C2`: the AUC(0-inf) in [1] was found to be 175 µg·h/mL; in data set [4], 251 µg·h/mL. Moreover, the Cmax amounted to 7000 ng/mL in data set [2], 12000 ng/mL in [5], 530 ng/mL in data set [8] and 7200 ng/mL in data set [12]. The half-life in [3] is 840 min; in [6] it was 720 min; in data set [10] it was 1980 min. Besides, in [7], the concentration ratio (Kp) was 1.4. Also, the time to peak (Tmax) was determined as 4.98 min in data set [9] and 6 h in data set [13]. The area under the curve AUC(0-t) came to 6970 ng·h/mL in data set [11] and 129 µg·h/mL in data set [14]. The bioavailability in [15] was found to be 93%. Also, the solubility (thermodynamic) in [16] came to 34 µg/mL (≈ 74.8 µM); in data set [17], 0.32 µg/mL (≈ 0.704 µM). Further, the solubility in the data set “physchem [18]” was 3 µg/mL (≈ 6.6 µM); in “physchem [19]”, 71 µg/mL (≈ 156 µM). The values for the remaining at 1 h in “in vitro [20]” and in “in vitro [21]” were 100% and 90%, respectively. In addition, the figures for the MIC in data set [22] and in [23] were 0.025 µM (≈ 0.0114 µg/mL) and 0.93 µM (≈ 0.423 µg/mL), respectively.

Regarding `COc1ccc(-c2ccc(CO[C@@H]3COc4nc([N+](=O)[O-])cn4C3)cc2)cn1`, the remaining at 1 h in data set [24] is more than 50%; in “in vitro [20]”, 40%; in “in vitro [21]”, 6%. Further, the solubility in “physchem [18]” came out at 4.4 µg/mL (≈ 11.5 µM). The MIC in data set [22] came to 0.045 µM (≈ 0.0172 µg/mL); in data set [23], 0.61 µM (≈ 0.233 µg/mL).
